In ChEMBL document CHEMBL1201862, “PubChem BioAssay data set” (2004):
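Test compounds were applied to cells in 96-well plates for 48 hours at 5 doses. Abbreviation: GI50, concentration required for 50% inhibition of growth.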 Calls of active or inactive are those of the source. Cut-off read from the data, not from the text of the source: active = GI50 up to about 1.1 µM and inactive = higher.

Legend:
Assay in all cases: growth of human tumour cells (NCI), 48 h
IGROV-1 = test system: IGROV-1
SF-539 = test system: SF-539
DU-145 = test system: DU-145
NCI-H522 = test system: NCI-H522
NCI-H23 = test system: NCI-H23
SW-620 = test system: SW-620
CAKI-1 = test system: CAKI-1
SK-MEL-5 = test system: SK-MEL-5
SNB-19 = test system: SNB-19
HT-29 = test system: HT-29
K562 = test system: K562
SK-MEL-2 = test system: SK-MEL-2
HOP-62 = test system: HOP-62
EKVX = test system: EKVX
PC-3 = test system: PC-3
M14 = test system: M14
T47D = test system: T47D
OVCAR-3 = test system: OVCAR-3
OVCAR-5 = test system: OVCAR-5
BT-549 = test system: BT-549
Malme-3M = test system: Malme-3M
UO-31 = test system: UO-31
KM12 = test system: KM12
NCI/ADR-RES = test system: NCI/ADR-RES
MDA-N = test system: MDA-N
Hs-578T = test system: Hs-578T
TK-10 = test system: TK-10
SK-MEL-28 = test system: SK-MEL-28
HL-60 = test system: HL-60
NCI-H226 = test system: NCI-H226
OVCAR-4 = test system: OVCAR-4
NCI-H460 = test system: NCI-H460
LOX IMVI = test system: LOX IMVI
SF-295 = test system: SF-295
A549 = test system: A549
UACC-62 = test system: UACC-62
SK-OV-3 = test system: SK-OV-3
MDA-MB-435 = test system: MDA-MB-435
A498 = test system: A498
HOP-92 = test system: HOP-92
MOLT-4 = test system: MOLT-4
SNB-75 = test system: SNB-75
MDA-MB-231 = test system: MDA-MB-231
COLO 205 = test system: COLO 205
786-0 = test system: 786-0
SF-268 = test system: SF-268
HCT-15 = test system: HCT-15
RPMI-8226 = test system: RPMI-8226
RXF 393 = test system: RXF 393
MCF7 = test system: MCF7
HCT-116 = test system: HCT-116
OVCAR-8 = test system: OVCAR-8
U-251 = test system: U-251
CCRF-CEM = test system: CCRF-CEM
HCC 2998 = test system: HCC 2998
SN12C = test system: SN12C
ACHN = test system: ACHN
SR = test system: SR
UACC-257 = test system: UACC-257

Cc1c2ncccc2c(C)c2c1[nH]c1ccc(O)cc12
GI50 (IGROV-1): 3890 nM (inactive)
GI50 (SF-539): 6550 nM (inactive)
GI50 (DU-145): 7230 nM (inactive)
GI50 (NCI-H522): 6220 nM (inactive)
GI50 (NCI-H23): 6580 nM (inactive)
GI50 (SW-620): 2800 nM (inactive)
GI50 (CAKI-1): 3320 nM (inactive)
GI50 (SK-MEL-5): 7240 nM (inactive)
GI50 (SNB-19): 6610 nM (inactive)
GI50 (HT-29): 6870 nM (inactive)
GI50 (K562): 3440 nM (inactive)
GI50 (SK-MEL-2): 18500 nM (inactive)
GI50 (HOP-62): 1860 nM (inactive)
GI50 (EKVX): 1400 nM (inactive)
GI50 (PC-3): 2760 nM (inactive)
GI50 (M14): 4890 nM (inactive)
GI50 (T47D): 8590 nM (inactive)
GI50 (OVCAR-3): 6280 nM (inactive)
GI50 (OVCAR-5): 11300 nM (inactive)
GI50 (BT-549): 13700 nM (inactive)
GI50 (Malme-3M): 8870 nM (inactive)
GI50 (UO-31): 3350 nM (inactive)
GI50 (KM12): 3600 nM (inactive)
GI50 (NCI/ADR-RES): 5270 nM (inactive)
GI50 (MDA-N): 4930 nM (inactive)
GI50 (Hs-578T): 1080 nM (active)
GI50 (TK-10): 12800 nM (inactive)
GI50 (SK-MEL-28): 13500 nM (inactive)
GI50 (HL-60): 2320 nM (inactive)
GI50 (NCI-H226): 6680 nM (inactive)
GI50 (OVCAR-4): 4150 nM (inactive)
GI50 (NCI-H460): 1310 nM (inactive)
GI50 (LOX IMVI): 1710 nM (inactive)
GI50 (SF-295): 2480 nM (inactive)
GI50 (A549): 2560 nM (inactive)
GI50 (UACC-62): 10200 nM (inactive)
GI50 (SK-OV-3): 3380 nM (inactive)
GI50 (MDA-MB-435): 7640 nM (inactive)
GI50 (A498): 13300 nM (inactive)
GI50 (HOP-92): 4540 nM (inactive)
GI50 (MOLT-4): 478 nM (active)
GI50 (SNB-75): 4070 nM (inactive)
GI50 (MDA-MB-231): 4930 nM (inactive)
GI50 (COLO 205): 10400 nM (inactive)
GI50 (786-0): 2910 nM (inactive)
GI50 (SF-268): 4940 nM (inactive)
GI50 (HCT-15): 3390 nM
GI50 (RPMI-8226): 2000 nM (inactive)
GI50 (RXF 393): 2900 nM (inactive)
GI50 (MCF7): 2650 nM (inactive)
GI50 (HCT-116): 4590 nM (inactive)
GI50 (OVCAR-8): 4350 nM (inactive)
GI50 (U-251): 2400 nM (inactive)
GI50 (CCRF-CEM): 1330 nM (inactive)
GI50 (HCC 2998): 6300 nM (inactive)
GI50 (SN12C): 2240 nM (inactive)
GI50 (ACHN): 2020 nM (inactive)
GI50 (SR): 1740 nM (inactive)
GI50 (UACC-257): 11500 nM (inactive)

CCN(CC)CCN1CCN=c2c3cc(OC)ccc3n3cnc4ccc1c2c43
GI50 (IGROV-1): 357 nM (active)
GI50 (SF-539): 323 nM (active)
GI50 (DU-145): 700 nM (active)
GI50 (NCI-H522): 1490 nM (inactive)
GI50 (NCI-H23): 713 nM (active)
GI50 (SW-620): 45.6 nM (active)
GI50 (CAKI-1): 621 nM (active)
GI50 (SK-MEL-5): 1400 nM (inactive)
GI50 (SNB-19): 481 nM (active)
GI50 (HT-29): 85.9 nM (active)
GI50 (K562): 200 nM (active)
GI50 (SK-MEL-2): 587 nM (active)
GI50 (HOP-62): 979 nM (active)
GI50 (EKVX): 1010 nM (active)
GI50 (PC-3): 391 nM (active)
GI50 (M14): 719 nM (active)
GI50 (T47D): 5520 nM (inactive)
GI50 (OVCAR-3): 946 nM (active)
GI50 (OVCAR-5): 736 nM (active)
GI50 (BT-549): 1270 nM (inactive)
GI50 (Malme-3M): 1220 nM (inactive)
GI50 (UO-31): 1410 nM (inactive)
GI50 (KM12): 367 nM (active)
GI50 (NCI/ADR-RES): 475 nM (active)
GI50 (MDA-N): 490 nM (active)
GI50 (Hs-578T): 1630 nM (inactive)
GI50 (TK-10): 1070 nM (active)
GI50 (SK-MEL-28): 1500 nM (inactive)
GI50 (HL-60): 430 nM (active)
GI50 (NCI-H226): 1540 nM (inactive)
GI50 (OVCAR-4): 274 nM (active)
GI50 (NCI-H460): 199 nM (active)
GI50 (LOX IMVI): 311 nM (active)
GI50 (SF-295): 548 nM (active)
GI50 (A549): 425 nM (active)
GI50 (UACC-62): 1710 nM (inactive)
GI50 (SK-OV-3): 1600 nM (inactive)
GI50 (MDA-MB-435): 522 nM (active)
GI50 (A498): 746 nM (active)
GI50 (HOP-92): 1120 nM (inactive)
GI50 (MOLT-4): 38.5 nM (active)
GI50 (SNB-75): 714 nM (active)
GI50 (MDA-MB-231): 483 nM (active)
GI50 (COLO 205): 362 nM (active)
GI50 (786-0): 272 nM (active)
GI50 (SF-268): 466 nM (active)
GI50 (HCT-15): 211 nM
GI50 (RPMI-8226): 305 nM (active)
GI50 (RXF 393): 292 nM (active)
GI50 (MCF7): 171 nM (active)
GI50 (HCT-116): 300 nM (active)
GI50 (OVCAR-8): 318 nM (active)
GI50 (U-251): 789 nM (active)
GI50 (CCRF-CEM): 218 nM (active)
GI50 (HCC 2998): 585 nM (active)
GI50 (SN12C): 429 nM (active)
GI50 (ACHN): 339 nM (active)
GI50 (SR): 174 nM (active)
GI50 (UACC-257): 1290 nM (inactive)

Oc1cc(-c2cccc(OCc3ccccc3)c2)nc2cc3c(cc12)OCO3
GI50 (IGROV-1): 1090 nM (active)
GI50 (SF-539): 252 nM (active)
GI50 (DU-145): 644 nM (active)
GI50 (NCI-H522): 268 nM (active)
GI50 (NCI-H23): 750 nM (active)
GI50 (SW-620): 303 nM (active)
GI50 (CAKI-1): 673 nM (active)
GI50 (SK-MEL-5): 247 nM (active)
GI50 (SNB-19): 423 nM (active)
GI50 (HT-29): 2010 nM (inactive)
GI50 (K562): 235 nM (active)
GI50 (SK-MEL-2): 301 nM (active)
GI50 (HOP-62): 440 nM (active)
GI50 (EKVX): 378 nM (active)
GI50 (PC-3): 327 nM (active)
GI50 (M14): 311 nM (active)
GI50 (T47D): > 52000 nM (inactive)
GI50 (OVCAR-3): 304 nM (active)
GI50 (OVCAR-5): 3400 nM (inactive)
GI50 (BT-549): 469 nM (active)
GI50 (Malme-3M): 621 nM (active)
GI50 (UO-31): 502 nM (active)
GI50 (KM12): 491 nM (active)
GI50 (NCI/ADR-RES): 226 nM (active)
GI50 (MDA-N): 106 nM (active)
GI50 (Hs-578T): 303 nM (active)
GI50 (TK-10): 2320 nM (inactive)
GI50 (SK-MEL-28): 632 nM (active)
GI50 (HL-60): 93.5 nM (active)
GI50 (NCI-H226): 455 nM (active)
GI50 (OVCAR-4): 2810 nM (inactive)
GI50 (NCI-H460): 292 nM (active)
GI50 (LOX IMVI): 269 nM (active)
GI50 (SF-295): 630 nM (active)
GI50 (A549): 871 nM (active)
GI50 (UACC-62): 370 nM (active)
GI50 (SK-OV-3): 342 nM (active)
GI50 (MDA-MB-435): 90.2 nM (active)
GI50 (A498): 256 nM (active)
GI50 (HOP-92): 578 nM (active)
GI50 (MOLT-4): 334 nM (active)
GI50 (SNB-75): 1050 nM (active)
GI50 (MDA-MB-231): 605 nM (active)
GI50 (COLO 205): 1310 nM (inactive)
GI50 (786-0): 374 nM (active)
GI50 (SF-268): 8340 nM (inactive)
GI50 (HCT-15): 376 nM
GI50 (RPMI-8226): 303 nM (active)
GI50 (RXF 393): 330 nM (active)
GI50 (MCF7): 1910 nM (inactive)
GI50 (HCT-116): 346 nM (active)
GI50 (OVCAR-8): 339 nM (active)
GI50 (U-251): 245 nM (active)
GI50 (CCRF-CEM): 274 nM (active)
GI50 (HCC 2998): 298 nM (active)
GI50 (SN12C): 378 nM (active)
GI50 (ACHN): 3710 nM (inactive)
GI50 (SR): 397 nM (active)
GI50 (UACC-257): 14700 nM (inactive)
